Data taken from patent publication US7318939B2 (Vita Green Health Products Co., Ltd., priority 2006, dated 2008).
“And” between values parts separate entries of the source, which are not always exact repeats. Identical values can stand only once. Counter-ions that a name gives are not always drawn.

Test system: male CD1 mice
Assay: Anti-depressant activity: forced swimming test in mice
Format: in vivo
Conditions: 30 mg/kg ip
Source text: A depressed state can be induced in mice by forcing them to swim in a narrow cylinder from which they cannot escape. After an initial period of vigorous activity, the mice adopt a characteristic immobile posture which is readily identifiable.
Fifty-five male CD1 mice weighing 20-25 g at the start of the study were obtained from Charles River Laboratories Espafia (Barcelona, Spain). These mice underwent a prior acclimatization period of 6 days before the start of the experimental work, during which they underwent a veterinary examination in order to assure their good health.
The mice were allotted at random to five groups, each consisting of ten animals. The rest of the animals (one per group) were kept as reserve (these animals are not taken into account in the final results). The experimental design is described in the Table 7 below.
The mice began a fasting period of approximately 6 hours before starting the treatments. At the beginning of the test, the corresponding treatments were administrated by the assigned route at a volume of 10 mL/kg. The test item was administrated at three dose levels of 100, 200 and 300 mg/kg by oral route (gastric gavage or po). The reference item was administrated at the dose level of 30 mg/kg by intraperitoneal route or ip. The Control group only received the vehicle (water for injection) orally (po) by gastric gavage.
Six minutes after the administration of the treatments, each mouse was dropped into the cylinder containing water (forcing it to swim) and left there for 6 minutes, the testing time. The time of immobility of the animal was recorded. A mouse was considered immobile when it ceased struggling and remained floating motionless in the water making only those movements necessary to keep its head above water. […] Finally, once the test was over, the animals were sacrificed by cervical dislocation.

SMILES: CN(C)CCCN1c2ccccc2CCc2ccccc21 [Imipramine HCl, Imipramine hydrochloride]
- % decrease versus Control (time of immobility): 56.2%
- Time of immobility (s) individual values (animal no. 1-10, hydrochloride): 90 s and 140 s and 64 s and 51 s and 3 s and 91 s and 37 s
- Time of immobility (s), mean (last 4 min of 6 min test, Mean ± SEM, n = 10, hydrochloride): 80.8 ± 13.14 s and 80.8 s
